Laboratory results from USRE39591E1, “6-O-substituted ketolides having antibacterial activity” (Abbott Laboratories, priority 1996, dated 2007).

System: up to 32 different microorganisms
Experiment: in vitro antibacterial activity (MIC), agar dilution on Brain Heart Infusion (BHI) agar with Steers replicator
Assay type: cell-based
Details: unit assumed
Description: Representative compounds of the present invention were assayed in vitro for antibacterial activity as follows: Twelve petri dishes containing successive aqueous dilutions of the test compound mixed with 10 mL of sterilized Brain Heart Infusion (BHI) agar (Difco 0148-01-5) were prepared. Each plate was inoculated with 1:100 (or 1:10 for slow-growing strains, such as Micrococcus and Streptococcus) dilutions of up to 32 different microorganisms, using a Steers replicator block. The inoculated plates were incubated at 35°-37° C. for 20 to 24 hours. In addition, a control plate, using BHI agar containing no test compound, was prepared and incubated at the beginning and end of each test.
An additional plate containing a compound having known susceptibility patterns for the organisms being tested and belonging to the same antibiotic class as the test compound was also prepared and incubated as a further control, as well as to provide test-to-test comparability. Erythromycin A was used for this purpose.
After incubation, each plate was visually inspected. The minimum inhibitory concentration (MIC) was defined as the lowest concentration of drug yielding no growth, a slight haze, or sparsely isolated colonies on the inoculum spot as compared to the growth control.

SMILES: CCC1OC(=O)C(C)C(=O)C(C)C(OC2OC(C)CC(N(C)C)C2O)C(C)(OCC=Cc2cn(C)c(=O)n(C)c2=O)CC(C)C(=O)C(C)C2NC(=O)OC12C (centres unmarked) [Example 293, Compound of Formula (IX): L is CO, T is NH, R is —CH2—CH═CH-(1,3-dimethyl-2,4-dioxo-5-pyrimidinyl)]
- MIC (organism code AA): 0.39 µg/mL
- MIC (organism code BB): 0.39 µg/mL
- MIC (organism code CC): > 100 µg/mL
- MIC (organism code DD): 0.39 µg/mL
- MIC (organism code EE): 0.39 µg/mL
- MIC (organism code FF): 0.39 µg/mL
- MIC (organism code GG): > 100 µg/mL
- MIC (organism code HH): 0.39 µg/mL
- MIC (organism code II): 0.1 µg/mL
- MIC (organism code JJ): 0.02 µg/mL
- MIC (organism code KK): 0.05 µg/mL
- MIC (organism code LL): 0.02 µg/mL
- MIC (organism code MM): > 100 µg/mL
- MIC (organism code NN): 0.78 µg/mL
- MIC (organism code OO): 0.05 µg/mL
- MIC (organism code PP): 0.2 µg/mL
- MIC (organism code QQ): > 100 µg/mL
- MIC (organism code RR): 0.78 µg/mL
- MIC (organism code SS): > 100 µg/mL
- MIC (organism code TT): > 100 µg/mL
- MIC (organism code UU): 12.5 µg/mL
- MIC (organism code VV): 0.78 µg/mL
- MIC (organism code WW): 16 µg/mL
- MIC (organism code XX): 0.03 µg/mL
- MIC (organism code YY): 0.03 µg/mL
- MIC (organism code ZZ): > 128 µg/mL
- MIC (organism code ZZA): 0.5 µg/mL

SMILES: CC[C@H]1OC(=O)[C@H](C)C(=O)[C@H](C)[C@@H](O[C@@H]2O[C@H](C)C[C@H](N(C)C)[C@H]2O)[C@@](C)(OCC=NOCc2ccc3ccccc3n2)C[C@@H](C)C(=O)[C@H](C)[C@H]2NC(=O)O[C@@]21C [Example 232, Compound of Formula (IX): L is CO, T is NH, R is —CH2CH═NOCH2(2-quinolyl)]
- MIC (organism code AA): 0.1 µg/mL
- MIC (organism code BB): 0.1 µg/mL
- MIC (organism code CC): > 100 µg/mL
- MIC (organism code DD): 0.2 µg/mL
- MIC (organism code EE): 0.2 µg/mL
- MIC (organism code FF): 0.1 µg/mL
- MIC (organism code GG): > 100 µg/mL
- MIC (organism code HH): 0.2 µg/mL
- MIC (organism code II): 0.02 µg/mL
- MIC (organism code JJ): 0.02 µg/mL
- MIC (organism code KK): 0.02 µg/mL
- MIC (organism code LL): 0.02 µg/mL
- MIC (organism code MM): > 100 µg/mL
- MIC (organism code NN): 0.2 µg/mL
- MIC (organism code OO): 0.02 µg/mL
- MIC (organism code PP): 0.2 µg/mL
- MIC (organism code QQ): 25 µg/mL
- MIC (organism code RR): 0.39 µg/mL
- MIC (organism code SS): > 100 µg/mL
- MIC (organism code TT): > 100 µg/mL
- MIC (organism code UU): 0.39 µg/mL
- MIC (organism code VV): 0.05 µg/mL
- MIC (organism code WW): 2 µg/mL
- MIC (organism code XX): 0.03 µg/mL
- MIC (organism code YY): 0.03 µg/mL
- MIC (organism code ZZ): > 128 µg/mL
- MIC (organism code ZZA): 0.5 µg/mL

SMILES: CC[C@H]1OC(=O)[C@H](C)C(=O)[C@H](C)[C@@H](O[C@@H]2O[C@H](C)C[C@H](N(C)C)[C@H]2O)[C@@](C)(OCC=NNC(=O)c2ccccc2)C[C@@H](C)C(=O)[C@H](C)[C@H]2NC(=O)O[C@@]21C [Example 241, Compound of Formula (IX): L is CO, T is NH, R is —CH2CH═NNHC(O)phenyl]
- MIC (organism code AA): 3.1 µg/mL
- MIC (organism code CC): > 100 µg/mL
- MIC (organism code DD): 6.2 µg/mL
- MIC (organism code EE): 6.2 µg/mL
- MIC (organism code FF): 6.2 µg/mL
- MIC (organism code GG): > 100 µg/mL
- MIC (organism code HH): 6.2 µg/mL
- MIC (organism code II): 1.56 µg/mL
- MIC (organism code JJ): 0.39 µg/mL
- MIC (organism code KK): 1.56 µg/mL
- MIC (organism code LL): 0.78 µg/mL
- MIC (organism code MM): > 100 µg/mL
- MIC (organism code NN): 6.2 µg/mL
- MIC (organism code OO): 0.78 µg/mL
- MIC (organism code PP): 3.1 µg/mL
- MIC (organism code QQ): > 100 µg/mL
- MIC (organism code RR): 1.56 µg/mL
- MIC (organism code SS): > 100 µg/mL
- MIC (organism code TT): > 100 µg/mL
- MIC (organism code UU): 100 µg/mL
- MIC (organism code VV): 6.2 µg/mL
- MIC (organism code WW): 16 µg/mL
- MIC (organism code XX): 0.5 µg/mL
- MIC (organism code YY): 0.25 µg/mL
- MIC (organism code ZZ): > 128 µg/mL
- MIC (organism code ZZA): 4 µg/mL

SMILES: CC[C@H]1OC(=O)[C@H](C)C(=O)[C@H](C)[C@@H](O[C@@H]2O[C@H](C)C[C@H](N(C)C)[C@H]2O)[C@@](C)(OCC=Cc2ccccc2)C[C@@H](C)C(=O)[C@H](C)[C@@H](O)[C@]1(C)O [Example 14, Compound of Formula (VIII): X is O, R is —CH2CH═CH-Phenyl]
- MIC (Candida albicans CCH 442 (code TT)): > 100 µg/mL
- MIC (Enterococcus faecism ATCC 8043 (code II)): 0.78 µg/mL
- MIC (Escherichia coli DC-2 (code SS)): > 100 µg/mL
- MIC (Escherichia coli JUHL (code QQ)): > 100 µg/mL
- MIC (Escherichia coli SS (code RR)): 6.2 µg/mL
- MIC (Haemophilis influenzae DILL AMP R (code WW)): 128 µg/mL
- MIC (Micrococcus luteus ATCC 4698 (code PP)): 0.78 µg/mL
- MIC (Micrococcus luteus ATCC 9341 (code OO)): 0.39 µg/mL
- MIC (Mycobacterium smegmatis ATCC 114 (code UU)): 3.1 µg/mL
- MIC (Nocardia Asteroides ATCC9970 (code VV)): 3.1 µg/mL
- MIC (Staphylococcus aureus 1775 (code GG)): > 100 µg/mL
- MIC (Staphylococcus aureus A5177 (code BB)): 1.56 µg/mL
- MIC (Staphylococcus aureus A-5278 (code CC)): > 100 µg/mL
- MIC (Staphylococcus aureus ATCC 6538P (code AA)): 1.56 µg/mL
- MIC (Staphylococcus aureus CMX 553 (code FF)): 3.1 µg/mL
- MIC (Staphylococcus aureus CMX 642A (code DD)): 3.1 µg/mL
- MIC (Staphylococcus aureus NCTC10649M (code EE)): 3.1 µg/mL
- MIC (Staphylococcus epidermidis 3519 (code HH)): 1.56 µg/mL
- MIC (Streptococcus Pneumonia 5649 (code ZZA)): 2 µg/mL
- MIC (Streptococcus Pneumonia 5979 (code ZZ)): 128 µg/mL
- MIC (Streptococcus Pneumonia ATCC6303 (code XX)): 1 µg/mL
- MIC (Streptococcus Pneumonia GYR 1171 (code YY)): 0.25 µg/mL
- MIC (Streptococcus agalactiae CMX 508 (code KK)): 0.2 µg/mL
- MIC (Streptococcus bovis A-5169 (code JJ)): 0.2 µg/mL
- MIC (Streptococcus pyogenes 930 (code MM)): 50 µg/mL
- MIC (Streptococcus pyogenes EES61 (code LL)): 0.39 µg/mL
- MIC (Streptococcus pyogenes PIU 2548 (code NN)): 0.78 µg/mL
